In the NIST ThermoML archive (doi:10.1021/je7001946):
Numbers after ± are expanded uncertainties.

Legend:
[1] = mn = molality of the nth substance listed, in mol/kg; conditions: 101.3 kPa, Liquid; for speed of sound: Pulse-echo method
[2] = 101.3 kPa, Liquid

CC#N [acetonitrile] + [Br-].[Br-].[Mn+2]
[1], m2 = 0
Conditions	mass density [kg/m3]
288.15 K	787.299 ± 0.6
293.15 K	781.923 ± 0.61
298.15 K	776.525 ± 0.61
303.15 K	771.097 ± 0.62
308.15 K	765.64 ± 0.62
313.15 K	760.148 ± 0.63
323.15 K	749.055 ± 0.65

CC#N [acetonitrile]
[2]
Conditions	mass density
288.15 K	787.303 ± 0.59 kg/m3 [middle of 5 runs]
293.15 K	781.923 ± 0.61 kg/m3 [middle of 5 runs]
298.15 K	776.525 ± 0.61 kg/m3 [middle of 5 runs]
303.15 K	771.097 ± 0.62 kg/m3 [middle of 5 runs]
308.15 K	765.64 ± 0.62 kg/m3 [middle of 5 runs]
313.15 K	760.151 ± 0.62 kg/m3 [middle of 5 runs]
323.15 K	749.07 ± 0.65 kg/m3 [middle of 5 runs]

Conditions	speed of sound [m/s]
[2], 298.15 K, Pulse-echo method	1278.3 ± 1.2

CC#N [acetonitrile] + [Cl][Co][Cl]
[1], m2 = 0
Conditions	mass density [kg/m3]
288.15 K	787.297 ± 0.59
293.15 K	781.919 ± 0.59
298.15 K	776.518 ± 0.6
303.15 K	771.09 ± 0.61
308.15 K	765.631 ± 0.61
313.15 K	760.142 ± 0.62
323.15 K	749.056 ± 0.63

CC#N [acetonitrile] + [Br][Co][Br]
[1], m2 = 0
Conditions	mass density [kg/m3]	speed of sound [m/s]
288.15 K	787.315 ± 0.6	–
293.15 K	781.939 ± 0.61	–
298.15 K	776.538 ± 0.61	1278.3 ± 1.2
303.15 K	771.112 ± 0.62	–
308.15 K	765.653 ± 0.63	–
313.15 K	760.164 ± 0.63	–
323.15 K	749.073 ± 0.65	–

CC#N [acetonitrile] + [Cl-].[Cl-].[Zn+2]
[1], m2 = 0
Conditions	mass density [kg/m3]
288.15 K	787.303 ± 0.59
293.15 K	781.922 ± 0.59
298.15 K	776.522 ± 0.6
303.15 K	771.095 ± 0.61
308.15 K	765.637 ± 0.61
313.15 K	760.151 ± 0.62
323.15 K	749.071 ± 0.63

[Cl][Co][Cl] [cobalt chloride] + CC#N
[1]
Conditions	mass density, 288.15 K [kg/m3]	mass density, 293.15 K [kg/m3]	mass density, 298.15 K [kg/m3]	mass density, 303.15 K [kg/m3]	mass density, 308.15 K [kg/m3]	mass density, 313.15 K [kg/m3]	mass density, 323.15 K [kg/m3]	speed of sound, 298.15 K [m/s]
m1 = 0.08764	795.418 ± 0.58	790.014 ± 0.58	784.59 ± 0.59	779.137 ± 0.6	773.654 ± 0.6	768.139 ± 0.61	756.997 ± 0.62	1279.8 ± 1.2
m1 = 0.1171	798.185 ± 0.57	792.779 ± 0.58	787.348 ± 0.59	781.889 ± 0.59	776.401 ± 0.6	770.881 ± 0.61	759.736 ± 0.62	1280.5 ± 1.2
m1 = 0.146	800.89 ± 0.57	795.475 ± 0.58	790.038 ± 0.58	784.571 ± 0.59	779.078 ± 0.6	773.545 ± 0.6	762.939 ± 0.62	1281.1 ± 1.2
m1 = 0.1743	803.599 ± 0.57	798.184 ± 0.57	792.742 ± 0.58	787.274 ± 0.59	781.773 ± 0.59	776.24 ± 0.6	765.073 ± 0.61	1281.8 ± 1.2
m1 = 0.2031	806.356 ± 0.56	800.934 ± 0.57	795.487 ± 0.58	790.011 ± 0.58	784.51 ± 0.59	778.973 ± 0.6	767.796 ± 0.61	1282.5 ± 1.2
m1 = 0.2318	809.121 ± 0.56	803.697 ± 0.57	798.244 ± 0.57	792.763 ± 0.58	787.256 ± 0.59	781.714 ± 0.59	770.528 ± 0.61	1283.2 ± 1.2
m1 = 0.26	811.836 ± 0.56	806.407 ± 0.56	800.953 ± 0.57	795.467 ± 0.58	789.954 ± 0.58	784.407 ± 0.59	773.206 ± 0.6	1284 ± 1.2
m1 = 0.2873	814.493 ± 0.55	809.058 ± 0.56	803.595 ± 0.57	798.109 ± 0.57	792.59 ± 0.58	787.039 ± 0.59	775.843 ± 0.6	1284.8 ± 1.2

[Cl-].[Cl-].[Zn+2] [zinc chloride] + CC#N
mass density [kg/m3], [1]
Conditions	m1 = 0.05257	m1 = 0.06571	m1 = 0.07576	m1 = 0.08438	m1 = 0.1077	m1 = 0.128	m1 = 0.1487	m1 = 0.1684	m1 = 0.1902	m1 = 0.2114
288.15 K	791.935 ± 0.58	793.095 ± 0.58	794 ± 0.58	794.764 ± 0.58	796.85 ± 0.57	798.676 ± 0.57	800.536 ± 0.57	802.335 ± 0.57	804.302 ± 0.56	806.244 ± 0.56
293.15 K	786.551 ± 0.59	787.712 ± 0.59	788.618 ± 0.58	789.38 ± 0.58	791.469 ± 0.58	793.289 ± 0.58	795.155 ± 0.58	796.955 ± 0.57	798.922 ± 0.57	800.862 ± 0.57
298.15 K	781.15 ± 0.59	782.313 ± 0.59	783.217 ± 0.59	783.985 ± 0.59	786.068 ± 0.59	787.887 ± 0.58	789.746 ± 0.58	791.541 ± 0.58	793.519 ± 0.58	795.456 ± 0.58
303.15 K	775.724 ± 0.6	776.886 ± 0.6	777.79 ± 0.6	778.553 ± 0.6	780.64 ± 0.59	782.455 ± 0.59	784.317 ± 0.59	786.115 ± 0.59	788.091 ± 0.58	790.032 ± 0.58
308.15 K	770.266 ± 0.61	771.431 ± 0.61	772.33 ± 0.6	773.096 ± 0.6	775.184 ± 0.6	777.003 ± 0.6	778.858 ± 0.6	780.661 ± 0.59	782.635 ± 0.59	784.575 ± 0.59
313.15 K	764.781 ± 0.61	765.94 ± 0.61	766.841 ± 0.61	767.607 ± 0.61	769.697 ± 0.61	771.516 ± 0.61	773.372 ± 0.6	775.165 ± 0.6	777.148 ± 0.6	779.089 ± 0.6
323.15 K	753.694 ± 0.63	754.859 ± 0.63	755.76 ± 0.62	756.526 ± 0.62	758.618 ± 0.62	760.435 ± 0.62	762.295 ± 0.62	764.103 ± 0.61	766.072 ± 0.61	768.014 ± 0.61

CC#N [acetonitrile] + [Br-].[Br-].[Zn+2]
[1], m2 = 0
Conditions	mass density [kg/m3]
288.15 K	787.313 ± 0.6
293.15 K	781.935 ± 0.6
298.15 K	776.535 ± 0.61
303.15 K	771.106 ± 0.62
308.15 K	765.65 ± 0.62
313.15 K	760.159 ± 0.63
323.15 K	749.07 ± 0.65
